Paper PMC12314110, “Evaluation of Potential Effects of CYP3A Inhibition and CYP3A Induction on the Pharmacokinetics of Fruquintinib in Healthy Subjects” (Clinical Pharmacology in Drug Development, 2025)

What was measured:
[1] = Part A: PK of single-dose fruquintinib alone and with itraconazole (CYP3A inhibition); assay type: in vivo, human; settings: for MPR AUC0‐inf (metabolite‐to‐parent ratio) / MPR AUC0‐t (metabolite‐to‐parent ratio) / MPR Cmax (metabolite‐to‐parent ratio): M11 to fruquintinib; for MPR AUC0‐inf (metabolite‐to‐parent ratio) / MPR AUC0‐t (metabolite‐to‐parent ratio) / MPR Cmax (metabolite‐to‐parent ratio) / Cmax / Tmax / half-life / AUC: Part A; for MPR AUC0‐inf (metabolite‐to‐parent ratio) / MPR AUC0‐t (metabolite‐to‐parent ratio) / MPR Cmax (metabolite‐to‐parent ratio) / Cmax / half-life / AUC: arithmetic mean (SD); for Cmax / Tmax / half-life / AUC: both sexes, human, oral, metabolite M11 in plasma; for Cmax: read-out: Cmax; for Tmax: median (minimum‐maximum); for half-life / AUC: plasma
Excerpt: (§1) This was a single‐center, open‐label, 2‐part (Part A and Part B), 2‐period, fixed‐sequence study conducted in healthy male and female subjects. Parts A and B evaluated the effect of the CYP3A inhibitor itraconazole and the CYP3A inducer rifampin on the PK profile of fruquintinib, respectively. Each part consisted of a screening phase, a treatment phase (Period 1 and Period 2), and an end‐of‐study (EOS) phase. Screening occurred within 21 days before the first study drug administration. There was at least a 14‐day washout of fruquintinib between treatment periods. PK samples were collected before dosing and over 168 hours following the fruquintinib dose in Part A (with itraconazole) and Part B (with rifampin). Part A and Part B were enrolled independently.
In Part A, subjects were administered fruquintinib alone in Treatment Period 1 and in combination with itraconazole in Treatment Period 2. Study Day 1 was considered the start of Treatment Period 1, and Study Day 15 was considered the start of Treatment Period 2. On Study Day 1, subjects received a single dose of fruquintinib 5 mg by mouth under fasted conditions (subjects fasted for at least 10 hours before fruquintinib dosing and 4 hours after), and on Study Day 19 subjects received a second single dose of fruquintinib 5 mg by mouth under fasted conditions, alongside itraconazole. On Study Day 15, subjects began a regimen of itraconazole 200 mg by mouth twice a day, followed by once daily dosing on Study Days 16‐25. A dose of 200 mg was selected, with a loading dose as part of a 5‐day lead‐in (twice daily for 1 day, once daily for 4 days) to achieve appropriate inhibition of CYP3A before dosing with fruquintinib.[10] Once‐daily dosing of itraconazole for an additional 5 days throughout the fruquintinib PK sampling period was continued to maintain CYP3A inhibition.[11]
As itraconazole oral bioavailability is maximal when the capsules are taken immediately after a full meal,[12] it was administered under fed conditions except when coadministered with fruquintinib on Study Day 19. Itraconazole doses were administered 30 minutes after the start of breakfast on Study Days 15‐18 and Study Days 20‐25. On Study Day 19, subjects received both treatments under fasted conditions, and itraconazole was administered 1 hour before administration of a single dose of fruquintinib 5 mg by mouth. Subjects were discharged after completion of EOS procedures on Study Day 26 or at early withdrawal.
(§2) Blood samples for determination of fruquintinib and metabolite M11 plasma concentrations were collected before dosing and at 0.5, 1, 1.5, 2, 3, 4, 6, 8, 12, 24, 36, 48, 72, 96, 120, 144, and 168 hours after fruquintinib dosing. Plasma samples were analyzed by LabCorp Bioanalytical (Indianapolis, IN) using a validated liquid chromatography with tandem mass spectrometry assay method with an analytical range of 1.00 ng/mL (lower limit of quantitation) to 750 ng/mL (upper limit of quantitation) for both fruquintinib and M11.[6] Interrun variability was 6.3% or less and 13.8% or less for fruquintinib and M11, respectively. Quality control samples at 4 concentrations (3, 30, 300, and 600 ng/mL) were assayed along with study samples, and the bias quality control sample concentrations deviated by ±2.0% and ±2.7% from the nominal concentrations for fruquintinib and M11, respectively.
PK parameters were determined by noncompartmental analysis and included maximum plasma concentration (Cmax); time to reach Cmax (tmax); area under the plasma concentration‐time curve (AUC) from time 0 to the time of the last measurable concentration (AUC0‐t); AUC from time 0 to infinity (AUC0‐inf); half‐life (t1/2); and the metabolite‐to‐parent ratios for Cmax, AUC0‐t, and AUC0‐inf. Apparent oral clearance and volume of distribution were also estimated for fruquintinib. […]

[2] = Part B: PK of single-dose fruquintinib alone and with rifampin (CYP3A induction); assay type: in vivo, human; settings: for MPR AUC0‐inf (metabolite‐to‐parent ratio) / MPR AUC0‐t (metabolite‐to‐parent ratio) / MPR Cmax (metabolite‐to‐parent ratio): M11 to fruquintinib; for MPR AUC0‐inf (metabolite‐to‐parent ratio) / MPR AUC0‐t (metabolite‐to‐parent ratio) / MPR Cmax (metabolite‐to‐parent ratio) / Cmax / half-life / AUC / Tmax: Part B; for MPR AUC0‐inf (metabolite‐to‐parent ratio) / MPR AUC0‐t (metabolite‐to‐parent ratio) / MPR Cmax (metabolite‐to‐parent ratio) / Cmax / half-life / AUC: arithmetic mean (SD); for Cmax / half-life / AUC / Tmax: metabolite M11 in plasma; for Cmax: read-out: Cmax; for Tmax: median (minimum‐maximum)
Excerpt: as §1
In Part B, subjects were administered fruquintinib alone in Treatment Period 1 and in combination with rifampin in Treatment Period 2. Study Day 1 was considered as the start of Treatment Period 1, and Study Day 8 was considered as the start of Treatment Period 2. On Study Day 1, a single dose of fruquintinib 5 mg by mouth was administered under fasted conditions, and on Study Day 15, a single dose of fruquintinib 5 mg was administered by mouth under fasted conditions alongside rifampin. Starting on Study Day 8, rifampin 600 mg was dosed by mouth once daily for 14 consecutive days, 7 days before fruquintinib dosing and 6 days after fruquintinib dosing, to ensure that induction was maintained throughout the PK sampling period. Subjects therefore received rifampin from Study Day 8 to Study Day 21. Absorption of rifampin is reduced by approximately 30% when the drug is ingested with food.[13] Therefore, rifampin was administered at least 1 hour before breakfast when given alone and under fasted conditions when administered with fruquintinib. Breakfast was given at least 1 hour after the rifampin doses on Study Days 8‐14 and Study Days 16‐21. On Study Day 15, subjects received both treatments under fasted conditions, and rifampin was administered 1hour before administration of a single dose of fruquintinib 5 mg by mouth. Subjects were discharged after completion of EOS procedures on Study Day 22 or at early withdrawal.
as §2
PK parameters were determined by noncompartmental analysis and included maximum plasma concentration (Cmax); time to reach Cmax (tmax); area under the plasma concentration‐time curve (AUC) from time 0 to the time of the last measurable concentration (AUC0‐t); AUC from time 0 to infinity (AUC0‐inf); half‐life (t1/2); and the metabolite‐to‐parent ratios for Cmax, AUC0‐t, and AUC0‐inf. Apparent oral clearance and volume of distribution were also estimated for fruquintinib.
For Part A, the effect of itraconazole based on the PK parameters of fruquintinib was evaluated using a linear mixed‐effect model with treatment (ie, fruquintinib with itraconazole [test] and fruquintinib alone [reference]) as fixed effects and subject as a random effect. A similar inferential analysis was performed for Part B, but fruquintinib with rifampin was the test group. […]

[3] = fruquintinib 5 mg + itraconazole 200 mg, n = 13
[4] = fruquintinib 5 mg + itraconazole 200 mg, n = 14
[5] = fruquintinib alone 5 mg, n = 14
[6] = coadministration of itraconazole
[7] = fruquintinib 5 mg + rifampin 600 mg, n = 13
[8] = fruquintinib alone 5 mg, n = 13

MPR AUC0‐inf (metabolite‐to‐parent ratio) [1, 3]: 0.177 (0.0371) | MPR AUC0‐t (metabolite‐to‐parent ratio) [1, 4]: 0.141 (0.0301) | MPR Cmax (metabolite‐to‐parent ratio) [1, 4]: 0.0579 (0.0155) | MPR AUC0‐inf (metabolite‐to‐parent ratio) ([1]; fruquintinib alone 5 mg, n = 12): 0.336 (0.0766) | MPR AUC0‐t (metabolite‐to‐parent ratio) [1, 5]: 0.291 (0.0745) | MPR Cmax (metabolite‐to‐parent ratio) [1, 5]: 0.121 (0.0358) | Cmax [1, 4]: 6.7 ng/mL | Tmax [1, 4]: 47.9 h | Cmax [1, 5]: 15.2 ng/mL | Tmax [1, 5]: 72 h | half-life ([1]; 5 mg, fruquintinib alone 5 mg, n = 12): 58.6 h | AUC ([1]; 5 mg, fruquintinib alone 5 mg, n = 12, read-out: AUC0‐inf): 2000 ng·h/mL | AUC ([1]; 5 mg, fruquintinib alone 5 mg, n = 14, read-out: AUC0‐t): 1580 ng·h/mL | half-life [1, 3]: 70.5 h | AUC ([1]; fruquintinib 5 mg + itraconazole 200 mg, n = 13, read-out: AUC0‐inf): 1100 ng·h/mL | AUC ([1]; fruquintinib 5 mg + itraconazole 200 mg, n = 14, read-out: AUC0‐t): 816 ng·h/mL | decrease of M11 AUC0‐inf [1, 6]: 44% | decrease of M11 AUC0‐t [1, 6]: 48% | decrease of M11 Cmax [1, 6]: 55% | MPR AUC0‐inf (metabolite‐to‐parent ratio) [2, 7]: 1.13 (0.269) | MPR AUC0‐t (metabolite‐to‐parent ratio) [2, 7]: 1.12 (0.266) | MPR Cmax (metabolite‐to‐parent ratio) [2, 7]: 0.312 (0.0975) | MPR AUC0‐inf (metabolite‐to‐parent ratio) [2, 8]: 0.379 (0.0944) | MPR AUC0‐t (metabolite‐to‐parent ratio) [2, 8]: 0.295 (0.0848) | MPR Cmax (metabolite‐to‐parent ratio) [2, 5]: 0.117 (0.0462) | Cmax ([2]; both sexes, human, oral, fruquintinib 5 mg + rifampin 600 mg, n = 13): 31.1 ng/mL | Cmax ([2]; both sexes, human, oral, fruquintinib alone 5 mg, n = 14): 13.7 ng/mL | half-life ([2]; both sexes, human, plasma, oral, 5 mg, fruquintinib alone 5 mg, n = 13): 71.8 h | AUC ([2]; both sexes, human, plasma, oral, 5 mg, fruquintinib alone 5 mg, n = 13, read-out: AUC0‐inf): 2160 ng·h/mL | AUC ([2]; both sexes, human, plasma, oral, 5 mg, fruquintinib alone 5 mg, n = 13, read-out: AUC0‐t): 1610 ng·h/mL | Tmax ([2]; both sexes, human, plasma, oral, 5 mg, fruquintinib alone 5 mg, n = 14, read-out: tmax): 48 h | half-life ([2]; both sexes, human, plasma, oral, fruquintinib 5 mg + rifampin 600 mg, n = 13): 25.1 h | AUC ([2]; both sexes, human, plasma, oral, fruquintinib 5 mg + rifampin 600 mg, n = 13, read-out: AUC0‐inf): 2200 ng·h/mL | AUC ([2]; both sexes, human, plasma, oral, fruquintinib 5 mg + rifampin 600 mg, n = 13, read-out: AUC0‐t): 2130 ng·h/mL | Tmax ([2]; both sexes, human, plasma, oral, fruquintinib 5 mg + rifampin 600 mg, n = 13, read-out: tmax): 23 h | increase of M11 Cmax ([2]; coadministration of fruquintinib with rifampin versus fruquintinib alone): 2.3 fold | Tmax [2, 7]: 22.9 (22.9–46.9) hour
Compound: COc1cc2ncnc(Oc3ccc4c(C(N)=O)c(C)oc4c3)c2cc1OC [M11]
